Reference: US6428823B1, “Biologically active aqueous fraction of an extract obtained from a mangrove plant Salvadora persica L” (Council of Scientific & Industrial Research, priority 2001, dated 2002)

System: mammalian tissues
Experiment: pharmacological screening of purified compounds in mammalian tissues
Details: result in words
Description: The invention further relates to methods of screening pharmacological activities of the said compounds in mammalian tissues.
vii) testing the pure compounds by using methods of pharmacology, and
Pharmacological Testing of Pure Compounds

## C=C(C)[C@@H]1CC[C@]2(CO)CC[C@]3(C)[C@H](CC[C@@H]4[C@@]5(C)CC[C@H](O)C(C)(C)[C@@H]5CC[C@]43C)[C@@H]12 [Betulin]
  biological activity shown by the extract: maintained

## CCCCCCCCCCCCCCCC(=O)OC [Methyl palmitate]
  biological activity shown by the extract: maintained
